Paper PMC6211260 (Journal of Enzyme Inhibition and Medicinal Chemistry, 2018)
Where two headings read alike, the source gives them in different places.

Assays:
[1] = test system: A498 renal cancer cell line; experiment: NCI five-dose testing; assay type: cell-based; details: Homo sapiens
Experimental: (§1) Screening against the cancer cell lines was carried out at the National Cancer Institute (NCI, Bethesda, Maryland, USA) applying the standard protocol of the NCI[22].

[2] = test system: SK-MEL-5 melanoma cell line; experiment: NCI five-dose testing; assay type: cell-based; details: Homo sapiens
Experimental: as §1

[3] = test system: OVCAR-4 ovarian cancer cell line; experiment: NCI five-dose testing; assay type: cell-based; details: Homo sapiens
Experimental: as §1

[4] = test system: U251 CNS cancer cell line; experiment: NCI five-dose testing; assay type: cell-based; details: Homo sapiens
Experimental: as §1

[5] = test system: HT-29 colon cancer cell line; experiment: NCI five-dose testing; assay type: cell-based; details: Homo sapiens
Experimental: as §1

[6] = test system: K-562 leukaemia cell line; experiment: NCI five-dose testing; assay type: cell-based; details: Homo sapiens
Experimental: as §1

[7] = test system: HOP-92 non-small cell lung cancer cell line; experiment: NCI five-dose testing; assay type: cell-based; details: Homo sapiens; for IC50: HOP-92
Experimental: as §1

[8] = test system: MDA-MB-468 breast cancer cell line; experiment: NCI five-dose testing; assay type: cell-based; details: Homo sapiens
Experimental: as §1

[9] = test system: PC-3 prostate cancer cell line; experiment: NCI five-dose testing; assay type: cell-based; details: Homo sapiens
Experimental: as §1

renal cancer cell lines = experiment: NCI five-dose testing, subpanel mean; assay type: cell-based; details: subpanel VII: renal cancer
Experimental: as §1

colon cancer cell lines = experiment: NCI five-dose testing, subpanel mean; assay type: cell-based; details: subpanel III: colon cancer
Experimental: as §1

[10] = test system: ovarian cancer cell lines; experiment: NCI five-dose testing, subpanel mean; assay type: cell-based; details: subpanel VI: ovarian cancer
Experimental: as §1

[11] = test system: prostate cancer cell lines; experiment: NCI five-dose testing, subpanel mean; assay type: cell-based; details: subpanel VIII: prostate cancer
Experimental: as §1

melanoma cell lines = experiment: NCI five-dose testing, subpanel mean; assay type: cell-based; details: subpanel V: melanoma
Experimental: as §1

[12] = test system: non-small cell lung cancer cell lines; experiment: NCI five-dose testing, subpanel mean; assay type: cell-based; details: subpanel II: non-small cell lung cancer
Experimental: as §1

breast cancer cell lines = experiment: NCI five-dose testing, subpanel mean; assay type: cell-based; details: subpanel IX: breast cancer
Experimental: as §1

Leukaemia cell lines = experiment: NCI five-dose testing, subpanel mean; assay type: cell-based; details: subpanel I: Leukaemia
Experimental: as §1

CNS cancer cell lines = experiment: NCI five-dose testing, subpanel mean; assay type: cell-based; details: subpanel IV: CNS cancer
Experimental: as §1

Plasma stability = assay type: in vitro ADME; details: 37 °C, 10 µM
Experimental: About 10 µM of compound 2l was mixed with human plasma and rat plasma and the mixture was shaked at 37 °C for 30 min and 120 min. After each time interval, acetonitrile was added and the mixture was centrifugated (14000 rpm, 4 °C). The supernatant was injected into the LC-MS to detect the remaining amount of compound 2l.

## COc1cccc(-c2nn(-c3ccccc3)cc2-c2ccnc(NCCNS(=O)(=O)c3cccc4ccccc34)c2)c1 [Compound 1i, N-(2-((4-(3-(3-Methoxyphenyl)-1-phenyl-1H-pyrazol-4-yl)pyridin-2-yl)amino)ethyl)naphthalene-1-sulfonamide]
other
  melting point: 178 to 180 °C

## COc1cccc(-c2nn(-c3ccccc3)cc2-c2ccnc(NCCCNS(=O)(=O)c3ccc(C)cc3)c2)c1 [Compound 2f, N-(3-((4-(3-(3-Methoxyphenyl)-1-phenyl-1H-pyrazol-4-yl)pyridin-2-yl)amino)propyl)-4-methylbenzenesulfonamide]
other
  melting point: 94 to 96 °C

## O=S(=O)(NCCCNc1cc(-c2cn(-c3ccccc3)nc2-c2cccc(O)c2)ccn1)c1ccc(F)cc1 [Compound 2m, 4-Fluoro-N-(3-((4-(3-(3-hydroxyphenyl)-1-phenyl-1H-pyrazol-4-yl)pyridin-2-yl)amino)propyl)benzenesulfonamide]
[1]; A498
  IC50: 3.52 µM
[1]; A498, read-out: LD50 (lethal dose 50)
  LC50 (lethal concentration 50%): 52.3 µM
[1]; A498, read-out: TGI (total growth inhibition concentration)
  IC (TGI): 9.8 µM
[2]; SK-MEL-5
  IC50: 3.06 µM
[2]; SK-MEL-5, read-out: LD50 (lethal dose 50)
  LC50 (lethal concentration 50): 33 µM
[2]; SK-MEL-5, read-out: TGI (total growth inhibition concentration)
  IC (TGI): 10.1 µM
[3]; OVCAR-4
  IC50: 3.82 µM
[3]; OVCAR-4, read-out: LD50 (lethal dose 50)
  LC50 (lethal concentration 50): > 100 µM
[3]; OVCAR-4, read-out: TGI (total growth inhibition concentration)
  IC (TGI): 4.8 µM
[4]; U-251, read-out: LD50 (lethal dose 50)
  CC50: 69.5 µM
[4]; U-251, U251, read-out: IC50
  IC50: 2.97 µM
[4]; U-251, U251, read-out: TGI (total growth inhibition concentration)
  IC (TGI): 10.3 µM
[5]; HT-29, read-out: LD50 (lethal dose 50)
  CC50: 47.8 µM
[5]; HT-29, read-out: IC50
  IC50: 2.26 µM
[5]; HT-29, read-out: TGI (total growth inhibition concentration)
  IC (TGI): 6.4 µM
[6]; K562, read-out: LD50 (lethal dose 50)
  CC50: > 100 µM
[6]; K562, K-562
  IC50: 2.4 µM
[6]; K562, K-562, read-out: TGI (total growth inhibition concentration)
  IC (TGI): 6.3 µM
[7]
  IC50: 2.66 µM
[7]; HOP-92, HOP-92, read-out: TGI (total growth inhibition concentration)
  IC (TGI): 7.6 µM
[7]; HOP-92, read-out: LD50 (lethal dose 50)
  LD50 (lethal dose 50): 84.2 µM
[8]; MDA-MB-468
  IC50: 2.55 µM
[8]; MDA-MB-468, read-out: LD50 (lethal dose 50)
  CC50: > 100 µM
[8]; MDA-MB-468, read-out: TGI (total growth inhibition concentration)
  IC (TGI): 6.7 µM
[9]; PC-3, read-out: LD50 (lethal dose 50)
  LC50 (lethal concentration 50): 80.7 µM
[9]; PC-3, read-out: IC50
  IC50: 3.11 µM
[9]; PC-3, read-out: TGI (total growth inhibition concentration)
  IC (TGI): 8.5 µM
Renal cancer cell lines
  IC50: 3.81 µM
Colon cancer cell lines
  IC50: 2.68 µM
[10]
  IC50: 3.79 µM
[11]
  IC50: 3.62 µM
Melanoma cell lines
  IC50: 2.89 µM
[12]
  IC50: 3.91 µM
Breast cancer cell lines
  IC50: 2.69 µM
Leukaemia cell lines
  IC50: 2.25 µM
CNS cancer cell lines
  IC50: 3.28 µM

## CNC(=O)c1cc(Oc2ccc(NC(=O)Nc3ccc(Cl)c(C(F)(F)F)c3)cc2)ccn1 [Sorafenib, reference compound]
[2]; SK-MEL-5
  IC50: 1.25 µM
[4]; U-251
  IC50: 2.51 µM
[5]; HT-29
  IC50: 2.51 µM
[7]
  IC50: 1.85 µM
[8]; MDA-MB-468
  IC50: 1.99 µM
[9]; PC-3
  IC50: 2.51 µM
Renal cancer cell lines
  IC50: 2.89 µM
Colon cancer cell lines
  IC50: 2.35 µM
[10]
  IC50: 2.77 µM
[11]
  IC50: 3.16 µM
Melanoma cell lines
  IC50: 8.57 µM
[12]
  IC50: 2.11 µM
Breast cancer cell lines
  IC50: 2.15 µM
Leukaemia cell lines
  IC50: 2.23 µM
CNS cancer cell lines
  IC50: 2.51 µM

## Cc1ccc(S(=O)(=O)NCCNc2cc(-c3cn(-c4ccccc4)nc3-c3cccc(O)c3)ccn2)cc1 [Compound 1n, N-(2-((4-(3-(3-Hydroxyphenyl)-1-phenyl-1H-pyrazol-4-yl)pyridin-2-yl)amino)ethyl)-4-methylbenzenesulfonamide]
other
  melting point: 114 to 116 °C

## COc1cccc(-c2nn(-c3ccccc3)cc2-c2ccnc(NCCNS(=O)(=O)c3ccccc3)c2)c1 [Compound 1a, N-(2-((4-(3-(3-methoxyphenyl)-1-phenyl-1H-pyrazol-4-yl)pyridin-2-yl)amino)ethyl) benzenesulfonamide]
other
  melting point: 104 to 106 °C

## COc1cccc(-c2nn(-c3ccccc3)cc2-c2ccnc(NCCNS(=O)(=O)c3ccc(C)cc3)c2)c1 [Compound 1f, N-(2-((4-(3-(3-Methoxyphenyl)-1-phenyl-1H-pyrazol-4-yl)pyridin-2-yl)amino)ethyl)-4-methylbenzenesulfonamide]
other
  melting point: 150 to 152 °C

## O=S(=O)(NCCNc1cc(-c2cn(-c3ccccc3)nc2-c2cccc(O)c2)ccn1)c1ccccc1 [Compound 1j, N-(2-((4-(3-(3-Hydroxyphenyl)-1-phenyl-1H-pyrazol-4-yl)pyridin-2-yl)amino)ethyl) benzenesulfonamide]
other
  melting point: 100 to 102 °C

## COc1ccc(S(=O)(=O)NCCCNc2cc(-c3cn(-c4ccccc4)nc3-c3cccc(OC)c3)ccn2)cc1 [Compound 2e, 4-Methoxy-N-(3-((4-(3-(3-methoxyphenyl)-1-phenyl-1H-pyrazol-4-yl)pyridin-2-yl)amino)propyl)benzenesulfonamide]
other
  melting point: 124 to 126 °C

## COc1ccc([C@@H]2Sc3ccccc3N(CCN(C)C)C(=O)[C@@H]2OC(C)=O)cc1 [Diltiazem]
Plasma stability; Human plasma, 30 min
  Plasma stability, remaining unchanged: 91.5%
Plasma stability; Human plasma, 30 min, listed as diltiazem
  Plasma stability, remaining unchanged: 91.5%
Plasma stability; Human plasma, 120 min
  Plasma stability, remaining unchanged: 89.3%
Plasma stability; Human plasma, 120 min, listed as diltiazem
  Plasma stability, remaining unchanged: 89.3%
Plasma stability; Rat plasma, 30 min
  Plasma stability, remaining unchanged: 86.3%
Plasma stability; Rat plasma, 120 min
  Plasma stability, remaining unchanged: 45.4%

## Cc1ccc(S(=O)(=O)NCCCNc2cc(-c3cn(-c4ccccc4)nc3-c3cccc(O)c3)ccn2)cc1 [Compound 2n, N-(3-((4-(3-(3-Hydroxyphenyl)-1-phenyl-1H-pyrazol-4-yl)pyridin-2-yl)amino)propyl)-4-methylbenzenesulfonamide]
other
  melting point: 158 to 160 °C

## COc1cccc(-c2nn(-c3ccccc3)cc2-c2ccnc(NCCCNS(=O)(=O)c3ccccc3)c2)c1 [Compound 2a, N-(3-((4-(3-(3-Methoxyphenyl)-1-phenyl-1H-pyrazol-4-yl)pyridin-2-yl)amino)propyl) benzenesulfonamide]
other
  melting point: 119 to 120 °C

## COc1cccc(-c2nn(-c3ccccc3)cc2-c2ccnc(NCCCNS(=O)(=O)c3cccc4ccccc34)c2)c1 [Compound 2i, N-(3-((4-(3-(3-Methoxyphenyl)-1-phenyl-1H-pyrazol-4-yl)pyridin-2-yl)amino)propyl) naphthalene-1-sulfonamide]
other
  melting point: 134 to 136 °C

## O=S(=O)(NCCCNc1cc(-c2cn(-c3ccccc3)nc2-c2cccc(O)c2)ccn1)c1ccccc1 [Compound 2j, N-(3-((4-(3-(3-Hydroxyphenyl)-1-phenyl-1H-pyrazol-4-yl)pyridin-2-yl)amino)propyl) benzenesulfonamide]
other
  melting point: 154 to 156 °C

## O=S(=O)(NCCNc1cc(-c2cn(-c3ccccc3)nc2-c2cccc(O)c2)ccn1)c1cccc(F)c1 [Compound 1p, 3-Fluoro-N-(2-((4-(3-(3-hydroxyphenyl)-1-phenyl-1H-pyrazol-4-yl)pyridin-2-yl)amino)ethyl)benzenesulfonamide]
other
  melting point: 146 to 148 °C

## COc1ccc(S(=O)(=O)NCCNc2cc(-c3cn(-c4ccccc4)nc3-c3cccc(OC)c3)ccn2)cc1 [Compound 1e, 4-Methoxy-N-(2-((4-(3-(3-methoxyphenyl)-1-phenyl-1H-pyrazol-4-yl)pyridin-2-yl)amino)ethyl)benzenesulfonamide]
other
  melting point: 144 to 146 °C

## COc1cccc(-c2nn(-c3ccccc3)cc2-c2ccnc(NCCNS(=O)(=O)c3cccc(F)c3)c2)c1 [Compound 1h, 3-Fluoro-N-(2-((4-(3-(3-methoxyphenyl)-1-phenyl-1H-pyrazol-4-yl)pyridin-2-yl)amino)ethyl)benzenesulfonamide]
other
  melting point: 118 to 120 °C

## CCN(CC)CCOC(=O)c1ccc(N)cc1 [Procaine]
Plasma stability; Human plasma, 30 min
  Plasma stability, remaining unchanged: 1.2%
Plasma stability; Human plasma, 30 min, listed as procaine
  Plasma stability, remaining unchanged: 1.2%
Plasma stability; Human plasma, 120 min
  Plasma stability, remaining unchanged: 0.2%
Plasma stability; Human plasma, 120 min, listed as procaine
  Plasma stability, remaining unchanged: 0.2%
Plasma stability; Rat plasma, 30 min
  Plasma stability, remaining unchanged: 89.9%
Plasma stability; Rat plasma, 120 min
  Plasma stability, remaining unchanged: 42.7%

## O=S(=O)(NCCNc1cc(-c2cn(-c3ccccc3)nc2-c2cccc(O)c2)ccn1)c1cccc2ccccc12 [Compound 1q, N-(2-((4-(3-(3-Hydroxyphenyl)-1-phenyl-1H-pyrazol-4-yl)pyridin-2-yl)amino)ethyl)naphthalene-1-sulfonamide]
other
  melting point: 146 to 148 °C
